Assay results as given in patent US20240336601A1 (Chulalongkorn University, priority 2020, published 2024).

Experiments:
PD-1/PD-L1 interaction = target: T1, PD-1/PD-L1 interaction (Homo sapiens, UniProt Q9NZQ7); experiment: PD-1/PD-L1 blockage cell-based bioassay (Jurkat NFAT luciferase / CHO-PDL1 co-culture); settings: Jurkat NFAT cells co-cultured with CHO-PDL1 cells, 6 h, luminescence
T1 construct: expressed in transfected cells

[1] = target: interaction between PD-1 and PD-L1 (Homo sapiens, UniProt Q9NZQ7); experiment: PD-1/PD-L1 protein-protein interaction assay (ALPHA); type: binding; settings: 2 nM His-tagged human PD-L1, 0.6 nM PD-1-Fc, AlphaScreen
Chain of interaction between PD-1 and PD-L1 (Q9NZQ7 19-238 limits assumed): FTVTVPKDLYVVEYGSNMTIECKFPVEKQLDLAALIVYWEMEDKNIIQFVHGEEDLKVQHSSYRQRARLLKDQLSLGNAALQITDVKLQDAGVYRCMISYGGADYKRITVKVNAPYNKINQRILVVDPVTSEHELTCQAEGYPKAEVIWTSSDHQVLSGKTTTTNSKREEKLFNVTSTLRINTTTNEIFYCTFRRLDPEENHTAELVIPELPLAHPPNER

T1 sequence (Q9NZQ7 19-290): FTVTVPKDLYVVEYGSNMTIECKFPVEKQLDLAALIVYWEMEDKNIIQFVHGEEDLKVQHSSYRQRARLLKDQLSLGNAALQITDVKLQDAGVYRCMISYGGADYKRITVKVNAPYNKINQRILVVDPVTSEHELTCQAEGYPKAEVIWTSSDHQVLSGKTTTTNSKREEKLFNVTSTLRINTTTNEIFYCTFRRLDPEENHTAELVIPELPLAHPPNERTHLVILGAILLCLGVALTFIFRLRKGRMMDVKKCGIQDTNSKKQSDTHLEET

Row | Structure (SMILES) | IC50 (PD-1/PD-L1 interaction) [nM] | IC50 [1] [nM]
1 | COc1cc(-n2ncc3c(-c4cccc(-c5ccc(CN6CC7(CNC(=O)C7)C6)c(OC)n5)c4Cl)cccc32)cc(OC)c1CN1CC(C(=O)O)C1 [Example 150, 1-(4-(4-(2-chloro-3-(6-methoxy-5-((7-oxo-2,6-diazaspiro[3.4]octan-2-yl)methyl)pyridin-2-yl)phenyl)-1H-indazol-1-yl)-2,6-dimethoxybenzyl)azetidine-3-carboxylic acid] | < 200 | < 1
2 | COC(=O)C1CC[C@H](NCc2ccc(-c3cccc(-c4cccc5c4ccn5-c4cc(OC)c(CNC[C@@H]5CCC(=O)N5)c(OC)c4)c3Cl)nc2OC)C1 (stereo partly shown) [Example 50] | > 2000 | 10 to 100
3 | COc1cc(-n2ncc3c(-c4cccc(-c5nc6cc(CN7CC[C@@H](C(=O)O)C7)cc(C#N)c6o5)c4C)cccc32)cc(OC)c1CN1CC[C@H](O)C1 [Example 155, (R)-1-((7-cyano-2-(3-(1-(4-(((S)-3-hydroxypyrrolidin-1-yl)methyl)-3,5-dimethoxyphenyl)-1H-indazol-4-yl)-2-methylphenyl)benzo[d]oxazol-5-yl)methyl)pyrrolidine-3-carboxylic acid] | < 200 | < 1
4 | COc1cc(-n2ncc3c(-c4cccc(-c5ccc(CN6CC7(CNC(=O)C7)C6)c(OC)n5)c4Cl)cccc32)cc(OC)c1CNC[C@H]1C[C@@H](O)C1 [Example 91, 2-((6-(2-chloro-3-(1-(4-(((((cis)-3-hydroxycyclobutyl)methyl)amino)methyl)-3,5-dimethoxyphenyl)-1H-indazol-4-yl)phenyl)-2-methoxypyridin-3-yl)methyl)-2,6-diazaspiro[3.4]octan-7-one] | 201 to 2000 | 1 to 10
5 | CCOC(=O)C1(C)CN(Cc2c(OC)cc(-n3ncc4c(-c5cccc(-c6ccc(CNC[C@@H]7CCC(=O)N7)c(OC)n6)c5Cl)cccc43)cc2OC)C1 [Example 151, ethyl (S)-1-(4-(4-(2-chloro-3-(6-methoxy-5-((((5-oxopyrrolidin-2-yl)methyl)amino)methyl)pyridin-2-yl)phenyl)-1H-indazol-1-yl)-2,6-dimethoxybenzyl)-3-methylazetidine-3-carboxylate] | < 200 | 1 to 10
6 | COc1cc(-n2ncc3c(-c4cccc(-c5ccc(CN6CC7(CNC(=O)C7)C6)c(OC)n5)c4Cl)cccc32)cc(OC)c1CN1CC(C)(C(N)=O)C1 [Example 103, 1-(4-(4-(2-chloro-3-(6-methoxy-5-((7-oxo-2,6-diazaspiro[3.4]octan-2-yl)methyl)pyridin-2-yl)phenyl)-1H-indazol-1-yl)-2,6-dimethoxybenzyl)-3-methylazetidine-3-carboxamide] | < 200 | 1 to 10
7 | COc1cc(-n2ncc3c(-c4cccc(-c5ccc(CN[C@H]6C[C@@H](O)C6)c(OC)n5)c4Cl)cccc32)cc(OC)c1CN1CC(C)(C(N)=O)C1 [Example 105, 1-(4-(4-(2-chloro-3-(5-(((cis-3-hydroxycyclobutyl)amino)methyl)-6-methoxypyridin-2-yl)phenyl)-1H-indazol-1-yl)-2,6-dimethoxybenzyl)-3-methylazetidine-3-carboxamide] | < 200 | < 1
8 | COc1cc(-n2ccc3c(-c4cccc(-c5ccc(CNC[C@@H]6CCC(=O)N6)c(OC)n5)c4Cl)ccnc32)cc(OC)c1CN1CC(C)(C(=O)NC2CC2)C1 [Example 46] | > 2000 | 1 to 10
9 | COc1cc(-n2ncc3c(-c4cccc(-c5ccc(CN[C@H]6C[C@@H](O)C6)c(OC)n5)c4Cl)cccc32)cc(OC)c1CN1CC(C)(O)C1 [Example 102, 1-(4-(4-(2-chloro-3-(5-(((cis-3-hydroxycyclobutyl)amino)methyl)-6-methoxypyridin-2-yl)phenyl)-1H-indazol-1-yl)-2,6-dimethoxybenzyl)-3-methylazetidin-3-ol] | < 200 | 1 to 10
10 | COc1cc(-n2ncc3c(-c4cccc(Nc5nc(C(F)F)nc6cc(CN7CC[C@@H](C(=O)O)C7)cnc56)c4C)cccc32)cc(OC)c1CN1CC[C@@H](O)C1 [Example 165, (R)-1-((2-(difluoromethyl)-4-((3-(1-(4-(((R)-3-hydroxypyrrolidin-1-yl)methyl)-3,5-dimethoxyphenyl)-1H-indazol-4-yl)-2-methylphenyl)amino)pyrido[3,2-d]pyrimidin-7-yl)methyl)pyrrolidine-3-carboxylic acid] | < 200 | < 1
11 | COc1cc(-n2ccc3c(-c4cccc(-c5ccc(CN6CC(C)(O)C6)c(OC)n5)c4Cl)cccc32)cc(OC)c1CNC[C@@H]1CCC(=O)N1 [Example 35] | 201 to 2000 | 1 to 10
12 | COc1cc(-n2ccc3c(-c4cccc(-c5ccc(CN6CC[C@@H](O)C6)c(OC)n5)c4Cl)ccnc32)cc(OC)c1CNC[C@@H]1CCC(=O)N1 [Example 34] | > 2000 | 1 to 10
13 | COc1cc(-n2ccc3c(-c4cccc(-c5ccc(CN6CC(C)(C(=O)O)C6)c(OC)n5)c4Cl)ccnc32)cc(OC)c1CNC[C@@H]1CCC(=O)N1 [Example 70, (S)-1-((6-(2-chloro-3-(1-(3,5-dimethoxy-4-((((5-oxopyrrolidin-2-yl)methyl)amino)methyl)phenyl)-1H-pyrrolo[2,3-b]pyridin-4-yl)phenyl)-2-methoxypyridin-3-yl)methyl)-3-methylazetidine-3-carboxylic acid] | > 2000 | 1 to 10
14 | COc1cc(-n2ncc3c(-c4cccc(-c5ccc(CNC[C@H]6C[C@@H](O)C6)c(OC)n5)c4Cl)cccc32)cc(OC)c1CN1CC(C)(O)C1 [Example 68, 1-(4-(4-(2-chloro-3-(5-((((cis-3-hydroxycyclobutyl)methyl)amino)methyl)-6-methoxypyridin-2-yl)phenyl)-1H-indazol-1-yl)-2,6-dimethoxybenzyl)-3-methylazetidin-3-ol] | < 200 | < 1
15 | COc1cc(-n2ncc3c(-c4cccc(-c5ccc(CN[C@H]6C[C@@H](O)C6)c(OC)n5)c4Cl)cccc32)cc(OC)c1CN[C@@H](C)CO [Example 119, cis-3-(((6-(2-chloro-3-(1-(4-((((S)-1-hydroxypropan-2-yl)amino)methyl)-3,5-dimethoxyphenyl)-1H-indazol-4-yl)phenyl)-2-methoxypyridin-3-yl)methyl)amino)cyclobutanol] | 201 to 2000 | < 1
16 | COc1cc(-n2ncc3c(-c4cccc(-c5ccc(CN6CC[C@@H](C(=O)O)C6)c(OC)n5)c4Cl)cccc32)cc(OC)c1CN1CC2(CNC(=O)C2)C1 [Example 130, (R)-1-((6-(2-chloro-3-(1-(3,5-dimethoxy-4-((7-oxo-2,6-diazaspiro[3.4]octan-2-yl)methyl)phenyl)-1H-indazol-4-yl)phenyl)-2-methoxypyridin-3-yl)methyl)pyrrolidine-3-carboxylic acid] | < 200 | < 1
17 | COc1cc(-n2ccc3c(-c4cccc(NC(=O)c5nc6c(s5)CN(C)CC6)c4C)cccc32)cc(OC)c1CNC[C@@H]1CCC(=O)N1 [Example 67, (S)—N-(3-(1-(3,5-dimethoxy-4-((((5-oxopyrrolidin-2-yl)methyl)amino)methyl)phenyl)-1H-indol-4-yl)-2-methylphenyl)-5-methyl-4,5,6,7-tetrahydrothiazolo[5,4-c]pyridine-2-carboxamide] | > 2000 | 1 to 10
18 | COc1cc(-n2ncc3c(-c4cccc(-c5ccc(CN6CC7(CNC(=O)C7)C6)c(OC)n5)c4Cl)cccc32)cc(OC)c1CN1CC(C)(O)C1 [Example 79, 2-((6-(2-chloro-3-(1-(4-((3-hydroxy-3-methylazetidin-1-yl)methyl)-3,5-dimethoxyphenyl)-1H-indazol-4-yl)phenyl)-2-methoxypyridin-3-yl)methyl)-2,6-diazaspiro[3.4]octan-7-one] | < 200 | < 1
19 | COc1cc(-n2ccc3c(-c4cccc(-c5ccc(CNC[C@@H]6CCC(=O)N6)c(OC)n5)c4Cl)cccc32)cc(OC)c1CN1CC(C)(O)C1 [Example 53] | 201 to 2000 | < 1
20 | COc1cc(-n2ncc3c(-c4cccc(-c5ccc(CN[C@H]6C[C@@H](O)C6)c(OC)n5)c4Cl)cccc32)cc(OC)c1CN1CC(C)(C(=O)NC2CC2)C1 [Example 100, 1-(4-(4-(2-chloro-3-(5-(((cis-3-hydroxycyclobutyl)amino)methyl)-6-methoxypyridin-2-yl)phenyl)-1H-indazol-1-yl)-2,6-dimethoxybenzyl)-N-cyclopropyl-3-methylazetidine-3-carboxamide] | < 200 | < 1
21 | COc1cc(-n2ncc3c(-c4cccc(-c5ccc(CN6CC7(CNC(=O)C7)C6)c(OC)n5)c4Cl)cccc32)ncc1CNCCO [Example 132, 2-((6-(2-chloro-3-(1-(5-(((2-hydroxyethyl)amino)methyl)-4-methoxypyridin-2-yl)-1H-indazol-4-yl)phenyl)-2-methoxypyridin-3-yl)methyl)-2,6-diazaspiro[3.4]octan-7-one] | < 200 | < 1
22 | COc1cc(-n2ncc3c(-c4cccc(-c5ccc(CN6CC7(CNC(=O)C7)C6)c(OC)n5)c4Cl)cccc32)cc(OC)c1CN1CC[C@@H](O)C1 [Example 133, (R)-2-((6-(2-chloro-3-(1-(4-((3-hydroxypyrrolidin-1-yl)methyl)-3,5-dimethoxyphenyl)-1H-indazol-4-yl)phenyl)-2-methoxypyridin-3-yl)methyl)-2,6-diazaspiro[3.4]octan-7-one] | < 200 | 1 to 10
23 | COc1cc(-n2ncc3c(-c4cccc(-c5ccc(CN[C@H]6C[C@@H](O)C6)c(OC)n5)c4Cl)cccc32)ncc1CNC[C@@H](C)O [Example 122, cis-3-(((6-(2-chloro-3-(1-(5-((((R)-2-hydroxypropyl)amino)methyl)-4-methoxypyridin-2-yl)-1H-indazol-4-yl)phenyl)-2-methoxypyridin-3-yl)methyl)amino)cyclobutanol] | 201 to 2000 | 1 to 10
